Measured values as given in patent US20230123334A1, “AMINO LIPID COMPOUND, PREPARATION METHOD THEREFOR, AND APPLICATION THEREOF” (SHENZHEN SHENXIN BIOTECHNOLOGY CO., LTD., priority 2020, published 2023).

Test system: HEK293 cells
Test: Preliminary screening as mRNA vectors, EGFP mRNA transfection of HEK293 cells
Assay type: cell-based
Settings: EGFP mRNA 50 ng per well, 96-well plates; percentage of GFP fluorescent cells relative to total number of cells (Hoechst)
Experimental: Cell line: HEK293 cells (ATCC CRL-1573™)
Medium: DMEM supplemented with 10% fetal bovine serum (Invitrogen)
Screening: cell transfection on 96-well plates
Detection (readout): percentage of the number of GFP fluorescent cells relative to the total number of cells (the total number of cells was determined using nucleus dye Hoechst). Lipofectamine2000 (Invitrogen) was used as the positive control.
Method: the experimental method was basically the same with Example 4, and the mass of EGFP mRNA (TriLink) for transfection was 50 ng per well.

Going from CCCCCCCCCCCCCCCCCCNc1nc(NCCN2CCN(C)CC2)nc(SCCCCCCC)n1 [Compound D5S7N18] to CCCCCCCCCCCCCCCSc1nc(NCCCCCCCC)nc(NCCN2CCN(C)CC2)n1 [Compound D5S15N8], the “Absolute mRNA transfection efficiency in HEK293 cells” value (“Absolute mRNA transfection efficiency” for short) rises from 38.5% to 94.7%.

First: CCCCCCCCCCCCCCCCSc1nc(NCCCCCCCCCCC)nc(NCCN2CCCC2)n1 [Compound D3S16N11]
Second: CCCCCCCCCCCCCCCCCCSc1nc(NCCCCCCC)nc(NCCN2CCCCC2)n1 [Compound D4S18N7]
The “Absolute mRNA transfection efficiency” value of the first is higher: 73.8% for the first, 0.3% for the second.

Compared with CCCCCCCCCCCCCCSc1nc(NCCCCCCCCC)nc(NCCN2CCOCC2)n1 [Compound D2S14N9], CCCCCCCCCCCCCNc1nc(NCCN2CCOCC2)nc(SCCCCCCCCCCCC)n1 [Compound D2S12N13] is lower in “Absolute mRNA transfection efficiency” value: 7.4% for the first, 0.0% for the second.

Going from CCCCCCCCCCCCCCCCNc1nc(NCCCN2CCN(C)CC2)nc(SCCCCCCCCCCC)n1 [Compound D9S11N16] to CCCCCCCCCCCCCCCCSc1nc(NCCCCCCCCC)nc(NCCCN2CCN(C)CC2)n1 [Compound D9S16N9], the “Absolute mRNA transfection efficiency” value rises from 3.9% to 54.4%.

Going from CCCCCCCCCCCCCCCCSc1nc(NCCCN2CCOCC2)nc(SCCCCCC)n1 [Compound D8S6S16] to CCCCCCCCCCCCCCCCSc1nc(NCCN2CCOCC2)nc(SCCCCCCC)n1 [Compound D2S7S16], the “Absolute mRNA transfection efficiency” value falls from 43.1% to 13.9%.

Compared with CCCCCCCCCCCCCCCCCCSc1nc(NCCN2CCN(C)CC2)nc(SCCCCCCC)n1 [Compound D5S7S18], CCCCCCCCCCCCCCCCSc1nc(NCCN2CCN(C)CC2)nc(SCCCCCCC)n1 [Compound D5S7S16] is higher in “Absolute mRNA transfection efficiency” value: 3.8% for the first, 49.2% for the second.

First: CCCCCCCCCCCCCCCCCCNc1nc(NCCN(C)C)nc(SCCCCCCCCCCCCCCCC)n1 [Compound D1S16N18]
Second: CCCCCCCCCCCCCCCCCCSc1nc(NCCCCCCCCCCC)nc(NCCCN(C)C)n1 [Compound D6S18N11]
The “Absolute mRNA transfection efficiency” value of the first is lower: 0.5% for the first, 5.7% for the second.

Going from CCCCCCCCCCCCSc1nc(NCCCCCCCCCCC)nc(NCC2CCN(C)CC2)n1 [Compound D10S12N11] to CCCCCCCCCCCCCNc1nc(NCC2CCN(C)CC2)nc(SCCCCCCCCCC)n1 [Compound D10S10N13], the “Absolute mRNA transfection efficiency” value falls from 26.6% to 8.5%.

Going from CCCCCCCCSc1nc(NCC2CCN(C)CC2)nc(SCCCCCCC)n1 [Compound D10S7S8] to CCCCCCCCCCCCSc1nc(NCCCCCCC)nc(NCC2CCN(C)CC2)n1 [Compound D10S12N7], the “Absolute mRNA transfection efficiency” value falls from 32.9% to 1.7%.

Going from CCCCCCCCCCCCN(CCCCCCCCCCCC)c1nc(NCCCN2CCOCC2)nc(SCCCCCCCC)n1 [D8S8^2N12] to CCCCCCCCCCCCCCCCCCSc1nc(NCCCCCCCCCCCCC)nc(NCCN2CCOCC2)n1 [Compound D2S18N13], the “Absolute mRNA transfection efficiency” value falls from 0.1% to 0.0%.

Going from CCCCCCCCCCCNc1nc(NCCCN2CCOCC2)nc(SCCCCCCCCCCC)n1 [Compound D8S11N11] to CCCCCCCCCCCCCCCNc1nc(NCCCN2CCOCC2)nc(SCCCCCCCCC)n1 [Compound D8S9N15], the “Absolute mRNA transfection efficiency” value rises from 3.6% to 7.2%.

Compared with CCCCCCCCCSc1nc(NCCCCCCCC)nc(NCCCN(C)C)n1 [Compound D6S9N8], CCCCCCCCCNc1nc(NCCCN(C)C)nc(SCCCCCCCC)n1 [Compound D6S8N9] is lower in “Absolute mRNA transfection efficiency” value: 7.5% for the first, 6.7% for the second.

Compared with CCCCCCCCCCCCCCCCCCNc1nc(NCC2CCN(C)CC2)nc(SCCCCCCCCCCCCCCCC)n1 [Compound D10S16N18], CCCCCCCCCCCCCCSc1nc(NCCCCCCCCCCCC)nc(NCC2CCN(C)CC2)n1 [Compound D10S14N12] is higher in “Absolute mRNA transfection efficiency” value: 3.0% for the first, 6.9% for the second.

Compared with CCCCCCCCCCCCCCSc1nc(NCCCN(C)C)nc(SCCCCCC)n1 [Compound D6S6S14], CCCCCCCCCCCCCCSc1nc(NCCN(C)C)nc(SCCCCCCC)n1 [Compound D1S7S14] is lower in “Absolute mRNA transfection efficiency” value: 62.8% for the first, 3.1% for the second.

First: CCCCCCCCCCCSc1nc(NCCCN2CCOCC2)nc(SCCCCCCC)n1 [Compound D8S7S11]
Second: CCCCCCCCCSc1nc(NCCCN2CCOCC2)nc(SCCCCCCC)n1 [Compound D8S7S9]
The “Absolute mRNA transfection efficiency” value of the first is higher: 23.1% for the first, 18.6% for the second.

Compared with CCCCCCCCCCCCNc1nc(NCCN2CCCCC2)nc(SCCCCCCCCCC)n1 [Compound D4S10N12], CCCCCCCCCCCCCCCCSc1nc(NCCCCCC)nc(NCCN2CCCCC2)n1 [Compound D4S16N6] is higher in “Absolute mRNA transfection efficiency” value: 1.0% for the first, 2.6% for the second.

Going from CCCCCCCNc1nc(NCCN2CCCC2)nc(SCCCCCCC)n1 [Compound D3S7N7] to CCCCCCCCCCSc1nc(NCCCCCC)nc(NCCN2CCCC2)n1 [Compound D3S10N6], the “Absolute mRNA transfection efficiency” value falls from 6.6% to 0.4%.

Going from CCCCCCCCSc1nc(NCCCCCCC)nc(NCCN2CCOCC2)n1 [Compound D2S8N7] to CCCCCCCSc1nc(NCCCCCC)nc(NCCN2CCOCC2)n1 [Compound D2S7N6], the “Absolute mRNA transfection efficiency” value rises from 0.9% to 1.2%.

Compared with CCCCCCCCCCCCSc1nc(NCCCCCCCCCCC)nc(NCCN2CCCCC2)n1 [Compound D4S12N11], CCCCCCCCCCCCCNc1nc(NCCN2CCCC2)nc(SCCCCCCCCCC)n1 [Compound D3S10N13] is higher in “Absolute mRNA transfection efficiency” value: 3.7% for the first, 35.0% for the second.

Going from CCCCCCCCCCCCCNc1nc(NCCN2CCN(C)CC2)nc(SCCCCCCC)n1 [Compound D5S7N13] to CCCCCCCCCCCNc1nc(NCCN2CCN(C)CC2)nc(SCCCCCCCCCCC)n1 [Compound D5S11N11], the “Absolute mRNA transfection efficiency” value falls from 39.5% to 36.5%.

First: CCCCCCCCCCCCCCCNc1nc(NCCN(C)C)nc(SCCCCCCCCC)n1 [Compound D1S9N15]
Second: CCCCCCCCCCCCCCCCNc1nc(NCCN(C)C)nc(SCCCCCCCC)n1 [Compound D1S8N16]
The “Absolute mRNA transfection efficiency” value of the first is higher: 27.4% for the first, 22.5% for the second.

Compared with CCCCCCCCSc1nc(NCCN(CC)CC)nc(SCCCCCCCC)n1 [Compound D7S8S8], CCCCCCCCCCSc1nc(NCCN(CC)CC)nc(SCCCCCCCC)n1 [Compound D7S8S10] is lower in “Absolute mRNA transfection efficiency” value: 25.3% for the first, 7.6% for the second.

Going from CCCCCCCCCCCNc1nc(NCCCN2CCN(C)CC2)nc(SCCCCCCCCCCC)n1 [Compound D9S11N11] to CCCCCCCCCCCCCCSc1nc(NCCCCCC)nc(NCCCN2CCN(C)CC2)n1 [Compound D9S14N6], the “Absolute mRNA transfection efficiency” value rises from 24.5% to 27.2%.

Compared with CCCCCCCCCCCCCCCSc1nc(NCCCCCCC)nc(NCCCN(C)C)n1 [Compound D6S15N7], CCCCCCCCCCCCCNc1nc(NCCCN(C)C)nc(SCCCCCCCCC)n1 [Compound D6S9N13] is higher in “Absolute mRNA transfection efficiency” value: 46.1% for the first, 70.9% for the second.

First: CCCCCCCCSc1nc(NCCCN2CCN(C)CC2)nc(SCCCCCC)n1 [Compound D9S6S8]
Second: CCCCCCCCCCCSc1nc(NCCCN2CCN(C)CC2)nc(SCCCCCC)n1 [Compound D9S6S11]
The “Absolute mRNA transfection efficiency” value of the first is lower: 3.0% for the first, 8.5% for the second.

First: CCCCCCCCCCSc1nc(NCCN2CCCCC2)nc(SCCCCCCCC)n1 [Compound D4S8S10]
Second: CCCCCCCCCCCCSc1nc(NCCCN2CCN(C)CC2)nc(SCCCCCC)n1 [Compound D9S6S12]
The “Absolute mRNA transfection efficiency” value of the first is higher: 9.2% for the first, 1.0% for the second.

Going from CCCCCCCCCCSc1nc(NCCCCCCCC)nc(NCCCN2CCN(C)CC2)n1 [Compound D9S10N8] to CCCCCCCCCNc1nc(NCCCN2CCN(C)CC2)nc(SCCCCCC)n1 [Compound D9S6N9], the “Absolute mRNA transfection efficiency” value falls from 5.4% to 0.9%.

First: CCCCCCCCCCCCCCCCCCSc1nc(NCCCCCCCC)nc(NCCN(C)C)n1 [Compound D1S18N8]
Second: CCCCCCCCCCCCCCCCSc1nc(NCCCCCCCC)nc(NCCN(C)C)n1 [Compound D1S16N8]
The “Absolute mRNA transfection efficiency” value of the first is lower: 38.0% for the first, 40.3% for the second.

First: CCCCCCCCCCCCCCCCSc1nc(NCCCCCCC)nc(NCCN(CC)CC)n1 [Compound D7S16N7]
Second: CCCCCCCCCCCNc1nc(NCCN(CC)CC)nc(SCCCCCCC)n1 [Compound D7S7N11]
The “Absolute mRNA transfection efficiency” value of the first is lower: 7.8% for the first, 11.1% for the second.

Compared with CCCCCCCCCCCCCCCSc1nc(NCCCCCCC)nc(NCC2CCN(C)CC2)n1 [Compound D10S15N7], CCCCCCCCCCCCCNc1nc(NCCN2CCCC2)nc(SCCCCCCCCC)n1 [Compound D3S9N13] is higher in “Absolute mRNA transfection efficiency” value: 22.1% for the first, 58.2% for the second.

Going from CCCCCCCCCCSc1nc(NCCCCCCCC)nc(NCCN2CCOCC2)n1 [Compound D2S10N8] to CCCCCCCCCCCCCNc1nc(NCCCN2CCOCC2)nc(SCCCCCCCCCCCC)n1 [Compound D8S12N13], the “Absolute mRNA transfection efficiency” value falls from 0.5% to 0.3%.

Compared with CCCCCCNc1nc(NCCN2CCN(C)CC2)nc(SCCCCCC)n1 [Compound D5S6N6], CCCCCCCCCSc1nc(NCCCCCC)nc(NCCN2CCN(C)CC2)n1 [Compound D5S9N6] is higher in “Absolute mRNA transfection efficiency” value: 2.1% for the first, 2.9% for the second.

Compared with CCCCCCCCCCCCCCSc1nc(NCCCCCCCCC)nc(NCCN2CCCC2)n1 [Compound D3S14N9], CCCCCCCCCCCCSc1nc(NCCCCCCCCCCC)nc(NCCN2CCCC2)n1 [Compound D3S12N11] is lower in “Absolute mRNA transfection efficiency” value: 51.6% for the first, 21.2% for the second.
